Data on 35 compounds can be found in patent US5935966A, “Pyrimidine carboxylates and related compounds and methods for treating inflammatory conditions” (Signal Pharmaceuticals, Inc., priority 1996, dated 1999).

The first assay deals with NFκB and AP-1. The assay can be described thus: NFκB and AP-1 luciferase reporter assays in stable Jurkat T-cells (PMA/PHA stimulated). Particulars: Homo sapiens, average of NFκB and AP-1 assays, read-out: ICm (average of the measurements obtained from the NFκB and AP-1 assays). The format is cell-based, human. The source says:
Stable human Jurkat T-cells containing an NFκB binding site (from the MHC promoter) fused to a minimal SV-40 promoter driving luciferase expression were used in this experiment. Cells were split to 3×10^5 cells/mL every 2-3 days (cell concentration should not exceed 1×10^6 cells/mL to keep the cells proliferating in log phase). These cells were counted, resuspended in fresh medium containing 10% Serum-Plus at a density of 1×10^6 cells/mL and plated in 96 well round bottom plates (200 μ.LAMBDA. per well) 18 hours prior to starting the experiment.
Compounds of this invention, dissolved in dimethyl sulfoxide (3.3, 0.33 and 0.03 μg/mL), were then added to the 96 well plates containing the cells and the plates were incubated for 0.5 h at 37° C. Then 50 ng/mL of phorbol 12-myristate-13-acetate (PMA) and 1 μg/mL of phytohemagglutinin (PHA) were added to each well and the cells were incubated for an additional 5 h at 37° C. The plates were centrifuged at 2200 RPM for 3 minutes at room temperature and then the medium was removed. To each well was added 60 μL of cell lysis buffer and the plates were left at room temperature for 0.25 h. Then 40 μL of each cell extract was transferred to a black 96 well plate and 50 μL of luciferase substrate buffer was added. Luminescence was immediately measured using a Packard TopCount.
For AP-1, the assay was run as described above for NFκB except stable Jurkat T-cells were used that contained a collagenase promoter driving luciferase expression. In addition, the concentration of PMA used was 5 ng/mL.
The IC50 values reported in Table 3 are the average of the measurements obtained from the NFκB and AP-1 assays described above.
(In a reporter assay the amount or activity of a reporter protein is the signal.)
Consider `CCOC(=O)c1cnc(NN2C(=O)C=C(c3ccccc3)C2=O)nc1C(F)(F)F` [Example 40, ETHYL 2-[N-(1'-AMINO-3'-PHENYLMALEIMIDO)]-4-TRIFLUOROMETHYLPYRIMIDINE-5-CARBOXYLATE], for which the IC50 came to 1 µM.

Regarding `CCOC(=O)c1cnc(N(C)N2C(=O)C=C(C)C2=O)nc1C(F)(F)F` [Example 42, ETHYL 2-[N-(1'-AMINOCITRACONAMIDO)-N-METHYL]-4-TRIFLUOROMETHYLPYRIMIDINE-5-CARBOXYLATE], the IC50 was determined as 5 µM.

Regarding `CCOC(=O)c1cnc(N(C)N2C(=O)C=C(C)C2=O)nc1-c1ccc(Cl)s1` [Example 68, ETHYL 2-[N-(1'-AMINOCITRACONAMIDO)-N-METHYL]-4-[2'-(5"-HLOROTHIENYL]PYRIMIDINE-5-CARBOXYLATE], the IC50 was 0.4 µM.

`CCOC(=O)c1cnc(N(C)N2C(=O)C=C(C)C2=O)nc1CC` [Example 73, ETHYL 2-[N-(1'-AMINOCITRACONAMIDO)-N-METHYL]-4-ETHYLPRYRIMIDINE-5-CARBOXYLATE]: the IC50 worked out at 0.05 µM.

Consider `CCCc1nc(N(C(C)=O)N2C(=O)C=C(C)C2=O)ncc1C(=O)OCC` [Example 74, ETHYL 2-[N-ACETYL-N-(1'-AMINOCITRACONAMIDO)]-4-PROPYLPYRIMIDINE-5-CARBOXYLATE], for which the IC50 was 0.45 µM.

`CCOC(=O)c1cnc(N(C(C)=O)N2C(=O)C=C(C)C2=O)nc1C(F)(F)F` [Example 75, ETHYL 2-[N-ACETYL-N-(1'-AMINOCITRACONAMIDO)]-4-TRIFLUOROMETHYLPYRIMIDINE-5-CARBOXYLATE]: the IC50 was 0.4 µM.

As for `COC(=O)c1cnc(NN2C(=O)C=C(C)C2=O)nc1C(F)(F)C(F)(F)F` [Example 77, METHYL 2-[N-(1'-AMINOCITRACONAMIDO)]-4-PENTAFLUOROETHYLPYRIMIDINE-5-CARBOXYLATE], the IC50 came out at 1.3 µM.

As for `COC(=O)c1cnc(N(C)N2C(=O)C=C(C)C2=O)nc1C(F)(F)C(F)(F)F` [Example 78, METHYL 2-[N-(1'-AMINOCITRACONAMIDO)]-N-METHYL]-4-PENTAFLUOROETHYLPYRMIDINE-5-CARBOXYLATE], the IC50 was determined as 0.15 µM.

Take `CC1=CC(=O)N(Nc2ncc(C(=O)OC(C)(C)C)c(C(F)(F)F)n2)C1=O` [Example 79, t-BUTYL 2-[N-(1'-AMINOCITRACONAMIDO)]-4-TRIFLUOROMETHYLPYRIMIDINE-5-CARBOXYLATE]: the IC50 was determined as 0.2 µM.

For the compound `COC(=O)c1cnc(N(C)N2C(=O)C=C(C)C2=O)nc1C(F)(F)F` [Example 81, METHYL 2-[N-(1'-AMINOCITRACONAMIDO)-N-METHYL]-4-TRIFLUOROMETHYLPYRIMIDINE-5-CARBOXYLATE], the IC50 amounted to 0.1 µM.

Take `COC(=O)c1cnc(NN2C(=O)C=C(C)C2=O)nc1-c1cccs1` [Example 83, METHYL 2-[N-(1'-AMINOCITRACONAMIDO)]-4-(2'-THIENYL)PYRIMIDINE-5-CARBOXYLATE]: the IC50 turned out to be 0.08 µM.

For the compound `CCOC(=O)c1cnc(N(Cc2ccccc2)N2C(=O)C=C(C)C2=O)nc1C(F)(F)F` [Example 84, ETHYL 2-[N-(1'-AMINOCITRACONAMIDO-N-BENZYL)]-4-TRIFLUOROMETHYLPYRIMIDINE-5-CARBOXYLATE], the IC50 amounted to 0.45 µM.

Turning to `CCOC(=O)c1cnc(N(C)N2C(=O)C=C(C)C2=O)nc1-c1cccs1` [Example 85, ETHYL 2-[N-(1'-AMINOCITRACONAMIDO-N-METHYL)]-4-(2'-THIENYL)PYRIMIDINE-5-CARBOXYLATE], the IC50 was determined as 0.02 µM.

Turning to `CC1=CC(=O)N(Nc2ncc(C(=O)c3ccccc3)c(C(F)(F)F)n2)C1=O` [Example 87, 5-BENZOYL 2-[N-(1'-AMINOCITRACONAMIDO)]-4-TRIFLUOROMETHYLPYRIMIDINE], the IC50 was 0.55 µM.

On to `CCOC(=O)c1cnc(NN2C(=O)C=C(C)C2=O)nc1-c1ccsc1` [Example 88, ETHYL 2-[N-(1'-AMINOCITRACONAMIDO)]-4-(3'-THIENYL)PYRIMIDINE-5-CARBOXYLATE], for which the IC50 turned out to be 0.5 µM.

With `CCOC(=O)c1cnc(N(C)N2C(=O)C=C(C)C2=O)nc1-c1ccsc1` [Example 89, ETHYL 2-[N-(1'-AMINOCITRACONAMIDO-N-METHYL)]-4-(3-THIENYL)PYRIMIDINE-5-CARBOXYLATE], the IC50 is 0.2 µM.

With `CCOC(=O)c1cnc(NN2C(=O)C=C(C)C2=O)nc1-c1ccc(C)s1` [Example 90, ETHYL 2-[N-(1'-AMINOCITRACONAMIDO)]-4-[2'-(5'-METHYLTHIENYL)]PYRIMIDINE-5-CARBOXYLATE], the IC50 came to 0.06 µM.

Consider `CCOC(=O)c1cnc(NN2C(=O)C=C(C)C2=O)nc1-c1ccco1` [Example 91, ETHYL 2-[N-(1'-AMINOCITRACONAMIDO)]-4-(2'-FURANYL)PYRIMIDINE-5-CARBOXYLATE], for which the IC50 stood at 1.1 µM.

Regarding `CCOC(=O)c1cnc(N(C)N2C(=O)C=C(C)C2=O)nc1-c1ccc(C)s1` [Example 92, ETHYL 2-[N-(1'-AMINOCITRACONAMIDO-N-METHYL)]-4-[2'-(5'-METHYLTHIENYL)]PYRIMIDINE-5-CARBOXYLATE], the IC50 was determined as 0.3 µM.

As for `CCOC(=O)c1cnc(NN2C(=O)C=C(C)C2=O)nc1-c1cc2ccccc2s1` [Example 93, ETHYL 2-[N-(1'-AMINOCITRACONAMIDO)]-4-(2'-THIANAPHTHYL)PYRIMIDINE-5-CARBOXYLATE], the IC50 turned out to be 0.8 µM.

Take `CCN(c1ncc(C(=O)OC)c(C(F)(F)F)n1)N1C(=O)C=C(C)C1=O` [Example 94, METHYL 2-[N-(1'-AMINOCITRACONAMIDO-N-ETHYL)]-4-TRIFLUOROMETHYLPYRIMIDINE-5-CARBOXYLATE]: the IC50 turned out to be 1.1 µM.

Regarding `CCCC(=O)N(c1ncc(C(=O)OCC)c(C(F)(F)F)n1)N1C(=O)C=C(C)C1=O` [Example 95, ETHYL 2-[N-(1'-AMINOCITRACONAMIDO-N-BUTANOYL)]-4-TRIFLUOROMETHYLPYRIMIDINE-5-CARBOXYLATE], the IC50 was determined as 0.3 µM.

For `CCOC(=O)c1cnc(N(C(=O)NC)N2C(=O)C=C(C)C2=O)nc1C(F)(F)F` [Example 96, ETHYL 2-[N-(1'-AMINOCITRACONAMIDO)-N-(N'-METHYLCARBOXAMIDYL)]-4-TRIFLUOROMETHYLPYRIMIDINE-5-CARBOXYLATE], the IC50 stood at 0.7 µM.

As for `CCOC(=O)c1cnc(N(C(=O)Cc2ccccc2)N2C(=O)C=C(C)C2=O)nc1C(F)(F)F` [Example 97, ETHYL 2-[N-(1'-AMINOCITRACONAMIDO)-N-(1-OXO-2"-PHENYLETHYL]-4-TRIFLUOROMETHYLPYRIMIDINE-5-CARBOXYLATE], the IC50 worked out at 0.9 µM.

`CCOC(=O)c1cnc(NN2C(=O)C=C(C)C2=O)nc1COC` [Example 98, ETHYL 2-[N-(1'-AMINOCITRACONAMIDO)]-4-METHOXYMETHYL PYRIMIDINE-5-CARBOXYLATE]: the IC50 is 6 µM.

On to `CCOC(=O)c1cnc(N(C(=O)OCC)N2C(=O)C=C(C)C2=O)nc1C(F)(F)F` [Example 99, ETHYL 2-[N-(1'-AMINOCITRACONAMIDO)-N-(ETHOXYCARBONYL)]-4-TRIFLUOROMETHYLPYRIMIDINE-5-CARBOXYLATE], for which the IC50 came out at 0.4 µM.

As to `CCOC(=O)c1cnc(N(C(=O)c2ccccc2)N2C(=O)C=C(C)C2=O)nc1C(F)(F)F` [Example 100, ETHYL 2-[N-(1'-AMINOCITRACONAMIDO)-N-BENZOYL]-4-TRIFLUOROMETHYLPYRIMIDINE-5-CARBOXYLATE], the IC50 amounted to 0.8 µM.

Consider `CCc1nc(NN2C(=O)C=C(C)C2=O)ncc1C(=O)c1ccccc1` [Example 101, 5-BENZOYL 2-[N-(1'-AMINOCITRACONAMIDO)]-4-ETHYLPYRIMIDINE], for which the IC50 worked out at 0.6 µM.

With `CCc1nc(N(C)N2C(=O)C=C(C)C2=O)ncc1C(=O)c1ccccc1` [Example 102, 5-BENZOYL 2-[N-(1'-AMINOCITRACONAMIDO)-N-METHYL]-4-ETHYLPYRIMIDINE], the IC50 is 0.4 µM.

`CCOC(=O)c1cnc(N(C)N2C(=O)C=C(C)C2=O)nc1C(F)(F)C(F)(F)F` [Example 103, ETHYL-2-[N-(1'-AMINOCITRACONAMIDO)-N-METHYL]-4-PENTAFLUOROETHYLPYRIMIDINE-5-CARBOXYLATE]: the IC50 is 0.4 µM.

Take `CCOC(=O)c1cnc(N(C)N2C(=O)C=C(C)C2=O)nc1-c1cc2ccccc2s1` [Example 104, ETHYL 2-[N-(1'-AMINOCITRACONAMIDO)]-4-(2'-THIANAPHTHYL)PYRIMIDINE-5-CARBOXYLATE]: the IC50 was 0.2 µM.

As to `CCOC(=O)c1cnc(NN2C(=O)C=C(C)C2=O)nc1-c1nccs1` [Example 105, ETHYL 2-[N-(1'-AMINOCITRACONAMIDO)]-4-(2'-THIAZOLYL)PYRIMIDINE-5-CARBOXYLATE], the IC50 is 2.4 µM.

For the compound `CCOC(=O)c1cnc(N(C)N2C(=O)C=C(C)C2=O)nc1-c1nccs1` [Example 106, ETHYL 2-[N-(1'-AMINOCITRACONAMIDO)-N-METHYL]-4-(2'-THIAZOLYL)PYRIMIDINE-5-CARBOXYLATE], the IC50 was 1.7 µM.

Still in this assay, the particulars now being: average of NFκB and AP-1 assays, read-out: ICm (average of the measurements obtained from the NFκB and AP-1 assays).
On to “4-[N-(1'-AMINOCITRACONAMIDO)]-5-(N-METHYL TETRAZOLYL)-2-(2"-THIENYL)PYRIMIDINE [Example 135]”, for which the IC50 is 0.12 µM.

`CCOC(=O)c1cnc(NN2C(=O)C(CC)=C(CC)C2=O)nc1C(F)(F)F` [Example 41, ETHYL 2-[N-(1'-AMINO-3',4'-DIETHYLMALEIMIDO)]-4-TRIFLUOROMETHYLPYRIMIDINE-5-CARBOXYLATE]: the IC50 is 3.9 µM.
